Assay results from US8993574B2, “Pyrrole antifungal agents” (F2G Ltd, priority 2008, dated 2015).

Key:
Type in all cases: cell-based
[1] = test system: Aspergillus fumigatus AF210; assay: Checkerboard titration, fractional inhibitory concentration (FIC), RPMI media; conditions: compound A in combination with caspofungin as compound B
Protocol: In the checkerboard titration doubling dilutions of compound A (e.g. an antifungal pyrrole compound as defined earlier) are prepared in every row across a microtitre plate and doubling dilutions of compound B (e.g. a second antifungal agent as defined earlier) are prepared in every column down a microtitre plate. The activity of the two compounds in combination can be compared with the activity of each compound alone. In such experiments a narrow range of dilutions can be tested for each compound around the minimum inhibitory concentration (MIC).
As an example, a stock solution of compound A (e.g. 5 mg/ml) can be prepared in a suitable solvent such as DMSO. A stock solution of compound B (e.g. caspofungin) is also prepared (e.g. 2 mg/ml). The stock solution of compound A is diluted (e.g. at a concentration of 1:2000 in water) to 2.5 μg/ml. […]
To determine the combined effect of the compounds the Fractional inhibitory concentration FIC is determined, where FIC is defined as: FIC=FICA+FICB=CA^comb/MICA^alone+CB^comb/MICB^alone where MICA^alone and MICB^alone are the MICs of compounds A and B when acting alone and CA^comb and CB^comb are concentrations of compounds A and B at the isoeffective combinations, respectively. […]

Aspergillus terreus AT4 = assay: MIC, YAG medium; conditions: Aspergillus terreus, 24 h at 35° C, MIC banded into grades, read-out: MIC grade, A. terreus
Procedure, shortened: (§1)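 OD 485 nm read-out after 24 h at 35° C; MIC = lowest concentration inhibiting growth >70% vs drug-free control, in mg/L. Inoculum 1−2×10^4 cfu/mL in YAG medium; drug range 50-0.05 mg/L, retested at 0.5-0.0005 mg/L when needed.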

Aspergillus flavus = assay: MIC, YAG medium; conditions: Aspergillus flavus, 24 h, 24 h at 35° C, MIC banded into grades, read-out: MIC grade, A. flavus
Procedure, shortened: as §1

Aspergillus niger = assay: MIC, YAG medium; conditions: Aspergillus niger, 24 h at 35° C, MIC banded into grades, read-out: MIC grade, A. niger
Procedure, shortened: as §1

[2] = test system: Aspergillus fumigatus AF293; assay: MIC, YAG medium; conditions: Aspergillus fumigatus, 24 h at 35° C, MIC banded into grades, read-out: MIC grade, A. fumigatus
Procedure, shortened: as §1

[3] = test system: Aspergillus fumigatus AF210; assay: MIC, YAG medium; conditions: Aspergillus fumigatus, 24 h at 35° C, MIC banded into grades, read-out: MIC grade, A. fumigatus 210
Procedure, shortened: as §1

Aspergillus terreus AT49 = assay: MIC, YAG medium; conditions: Aspergillus terreus, 24 h at 35° C, MIC banded into grades, read-out: MIC grade, A. terreus 49
Procedure, shortened: as §1

For `Cc1cc(C)nc(N2CCN(c3ccc(NC(=O)C(=O)c4c(-c5ccccc5)cc(C)n4C)cc3)CC2)c1` [Example 1, 2-(1,5-Dimethyl-3-phenyl-1H-pyrrol-2-yl)-N-{4-[4-(4,6-dimethyl-pyridin-2-yl)-piperazin-1-yl]-phenyl}-2-oxo-acetamide], the “FIC (fractional inhibitory concentration)” value [1] was 0.67, the MIC (Aspergillus terreus AT4) was < 1 µg/mL and the MIC (Aspergillus flavus) was < 1 µg/mL. The MIC (Aspergillus niger) was < 1 µg/mL, the MIC [2] was < 1 µg/mL and the MIC [3] was < 1 µg/mL. The MIC (Aspergillus terreus AT49) was < 1 µg/mL.
